What all share (assay): NCI tumour cell line growth inhibition, 48 h
For assay [1], the system named is IGROV1 ovarian.
Assay [2] deals with SF-295 CNS.
Assay [3] concerns RPMI-8226 leukemia.
The subject of assay [4] is HL-60(TB) leukemia.
Assay [5] has as its system OVCAR-4 ovarian.
The test system of assay [6] is A498 renal.
Assay [7] relates to M14 melanoma.
Assay [8] has as its system HOP-92 NSCLC.
The test system of assay [9] is SK-MEL-5 melanoma.
Assay [10] relates to HT29 colon.

For 19 compounds, GI50 and TGI results are on record in PubChem BioAssay (NCI).

SMILES strings stand for the structures. Values joined by “and” are separate entries in the source; they are usually repeats but may differ in a detail not shown here. Equal entries are not always repeated.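 Briefly, cells in 96-well plates were exposed to five compound concentrations for 48 h, and endpoints were estimated by linear interpolation. GI50: concentration for 50% inhibition of growth. TGI: concentration producing complete growth inhibition.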

On to `COc1ccc2c(c1)C(=O)/C(=C/c1ccc(O)cc1)O2`, for which the GI50 in assay [1] was 6870 nM; in [2], 23600 nM; in assay [3], 1550 nM; in assay [4], 1350 nM; in assay [5], 5670 nM; in assay [6], 23200 nM. Besides, the GI50 in [7] is 15300 nM; in assay [8], 3370 nM; in assay [9], 15.4 µM; in [10] it was 4140 nM. Moreover, the TGI in [1] was 20.8 µM; in assay [2], over 66.9 µM; in assay [3], 3.49 µM; in [4], 2.95 µM; in [5], 12.7 µM; in [6], 49.3 µM. Moreover, the TGI in assay [7] turned out to be 34 µM; in [8] it was 9.65 µM; in assay [9], 30.5 µM; in assay [10] it was 14.8 µM.

For `CCCCCCCC(=O)Nc1nc2[nH]c(CN3CCN(Cc4cccc(I)c4)CC3)c(CN3CCN(Cc4cccc(I)c4)CC3)c2c(=O)[nH]1`, the GI50 in assay [1] was 836 nM; in assay [2] it was 843 nM; in assay [3], 531 nM; in assay [4] it was 924 nM; in assay [5], 841 nM; in assay [6], 800 nM. Also, the GI50 in assay [7] is 882 nM; in assay [8], 668 nM; in [9], 0.973 µM; in assay [10], 998 nM. For the same compound, the TGI is 1.67 µM in [1]; 1.55 µM in assay [2]; 1.81 µM in assay [3]; 2.27 µM in assay [4]; 1.62 µM in assay [5]; 1.62 µM in assay [6]. The TGI in assay [7] worked out at 1.77 µM; in assay [8], 1.4 µM; in assay [9] it was 1.9 µM; in assay [10], 2.13 µM.

In the case of `COC(=O)C(/C(=N/N)C(=O)Nc1cc(Cl)ccc1Cl)c1nc2ccc([N+](=O)[O-])cc2[nH]c1=O` (centres undefined), the TGI in assay [1], in assay [2], in [3], in [4], in [5] and in assay [6] was over 100 µM throughout. Further, the TGI in assay [7], in assay [8], in assay [9] and in assay [10] was over 100 µM each time.

As for `CN1C(c2ccccc2)CC(=NO)CC1c1ccccc1` (centres undefined), the TGI in [1] was over 100 µM; in assay [2], over 100 µM; in assay [3], 55.5 µM; in [4] it was 40.7 µM and 68 µM; in assay [5], over 100 µM; in assay [6], over 100 µM. Moreover, the TGI in assay [7], in assay [8], in [9] and in [10] was over 100 µM throughout. In addition, the GI50 in assay [2] was 44500 nM; in [3], 33000 nM; in [4], 22000 nM; in [9] it was 71.8 µM; in assay [10], 34800 nM.

Consider `O=c1oc2ccc(F)cc2c(=O)n1-c1ccc(I)cc1F`, for which the GI50 in [1] is 397 nM; in [2] it was 1860 nM; in assay [3], 239 nM; in assay [4], 366 nM; in assay [5] it was 298 nM; in assay [6], 191 nM. Besides, the GI50 in assay [7] is 490 nM; in assay [8], 206 nM; in [9] it was 0.224 µM; in assay [10], 3290 nM. Further, the TGI worked out at 15.6 µM in assay [1]; 3.68 µM in assay [2]; 0.745 µM in [3]; 1.83 µM in [4]; 0.646 µM in assay [6]; 4.27 µM in assay [7]. For the same compound, the TGI in assay [8] is 0.577 µM; in assay [9] it was 0.521 µM; in [10], over 33 µM.

As to `COc1cc(OCCCN2CCCC2)ccc1Nc1ncc(Cl)c(Nc2ccccc2P(C)(C)=O)n1`, the GI50 in assay [1] is 1410 nM; in assay [2], 2700 nM; in assay [3], 2680 nM; in assay [4], 1360 nM; in assay [5] it was 1520 nM; in assay [6], 175 nM. For the same compound, the GI50 in assay [7] was 2580 nM; in assay [8] it was 163 nM; in [9], 3.71 µM; in assay [10], 521 nM. The TGI in [1] is 22.5 µM; in assay [2], 14.2 µM; in assay [3] it was 12.2 µM; in assay [4] it was 6.19 µM; in assay [5], 11.7 µM; in assay [6] it was 1.12 µM. Further, the TGI was 12.3 µM in assay [7], 1.25 µM in assay [8], 15.8 µM in assay [9] and 3.79 µM in assay [10].

Consider `Cc1ccc(NC(=O)CCc2nnc3s/c(=C\C=C\c4ccccc4)c(=O)n23)cc1`, for which the TGI is over 100 µM in [1]; over 100 µM in [2]; over 82.1 µM in [3]; over 79.7 µM in [4]; over 56.2 µM in [5]; over 100 µM in assay [6]. Moreover, the TGI in assay [7], in assay [8], in assay [9] and in [10] was over 100 µM throughout.

Take `N#Cc1c(N)c(C(=O)c2ccc3c(c2)OCCO3)n2c1CCCC2`: the GI50 in [1] is 6920 nM; in assay [2], 2690 nM; in [3] it was 3930 nM; in [4] it was 2800 nM; in assay [5], over 69100 nM; in assay [6], 1790 nM. For the same compound, the GI50 in assay [7] was 2080 nM; in assay [8] it was 2330 nM; in [9], 3.32 µM; in assay [10] it was 2230 nM. Moreover, the TGI was over 100 µM in [1]; over 53.4 µM in assay [2]; over 100 µM in assay [3]; over 27 µM in [4]; over 100 µM in assay [5]; 8.03 µM in assay [6]. Also, the TGI in assay [7], in assay [8], in assay [9] and in [10] was over 100 µM each time.

As to `COc1ccc2c(c1)/C(=C\c1c(-c3ccccc3)nc3sccn13)C(=O)N2`, the GI50 in assay [1] was 13900 nM; in [2] it was 268 nM; in assay [3], 1570 nM; in assay [4], 5090 nM; in assay [5] it was 15600 nM; in [6] it was 630 nM. The GI50 was 7110 nM in assay [7], over 100000 nM in assay [8], 6.06 µM in assay [9] and 8170 nM in [10]. Besides, the TGI in [1] was 52.3 µM; in assay [2] it was 0.967 µM; in assay [3] it was 5.51 µM; in assay [4], over 35.6 µM; in assay [5], over 96.8 µM; in [6], 5.11 µM. Besides, the TGI was 18.4 µM in assay [7], over 100 µM in assay [8], 21.3 µM in assay [9] and over 40.7 µM in assay [10].

As to `O=C(O)c1nn(-c2ccc(Cl)cc2)c2c1C(=O)c1ccccc1C2=O`, the TGI in assay [1], in assay [2], in assay [3], in assay [4], in assay [5] and in [6] was over 100 µM throughout. Moreover, the TGI was 63.9 µM in [7], over 100 µM in [8], 53.6 µM in [9] and over 100 µM in assay [10].

On to `Cn1cnc(SC2=CC(=O)C=C3S[C@H]4C[C@@]23c2c(c(O)c3c5c2=NCCC=5C=N3)N4)c1CC(N)C(=O)O` (some centres undefined), for which the GI50 is 11600 nM in [1]; 15900 nM in assay [2]; 16300 nM in [3]; 3180 nM in [4]; 13400 nM in [5]; 18100 nM in [6]. Besides, the GI50 was 15100 nM in assay [7], 17500 nM in assay [8], 14.5 µM in assay [9] and 2180 nM in assay [10]. For the same compound, the TGI in assay [1] was 23.9 µM; in assay [2] it was 29.6 µM; in assay [3], over 100 µM; in [4] it was 8.27 µM; in assay [5] it was 26.2 µM; in assay [6], 32.7 µM. Besides, the TGI in assay [7] worked out at 28.6 µM; in assay [8], 31.7 µM; in assay [9], 27.6 µM; in assay [10], 11.7 µM.

Consider `CC(=O)N(N=O)c1ccc(N(N=O)C(C)=O)cc1`, for which the TGI in [1], in assay [2], in assay [3], in [4], in [5] and in assay [6] was over 100 µM throughout. Also, the TGI in assay [7], in assay [8], in assay [9] and in assay [10] was over 100 µM throughout.

Regarding `COc1ccc(Cc2ccc3[nH]c(=O)cc(C)c3c2)cc1S(=O)(=O)O`, the TGI in assay [1], in [2], in assay [3], in assay [4], in assay [5] and in assay [6] was over 100 µM in each case. The TGI in assay [7], in assay [8], in assay [9] and in assay [10] was over 100 µM each time.

With `CC1(C)CC[C@]2(C(=O)NCCNCCN)CC[C@]3(C)C(=CC[C@@H]4[C@@]5(C)CCC(=O)C(C)(C)[C@@H]5CC[C@]43C)[C@@H]2C1`, the GI50 in [1] is 1690 nM; in [2] it was 1830 nM; in [3], 2440 nM; in assay [4], 2070 nM; in [5], 1890 nM; in assay [6], 8010 nM. For the same compound, the GI50 was 1870 nM in assay [7], 1470 nM in [8], 1.8 µM in assay [9] and 1960 nM in assay [10]. Also, the TGI amounted to 3.11 µM in [1]; 3.39 µM in [2]; 6.26 µM in [3]; 4.71 µM in assay [4]; 3.66 µM in assay [5]; 23.6 µM in [6]. Further, the TGI worked out at 3.5 µM in assay [7], 4.4 µM in assay [8], 3.22 µM in assay [9] and 4.43 µM in assay [10].

As to `CCCCCCCCCCNC(=S)OC`, the TGI in [1] is over 100 µM; in [2], over 100 µM; in assay [3], 36.7 µM; in assay [4], 44.8 µM; in assay [5], over 100 µM; in assay [6] it was over 100 µM. Further, the TGI in assay [7] was over 100 µM; in assay [8] it was 65.9 µM; in [9], 54.1 µM; in assay [10], over 100 µM.

With `Cn1cc(-c2ncnc3ccc(-c4cnc(Cl)c(NS(C)(=O)=O)c4)cc23)c2ccccc21`, the GI50 in assay [1] was 96.4 nM; in assay [2] it was 298 nM; in assay [3], 419 nM; in assay [4] it was 538 nM; in assay [5], 921 nM; in assay [6], 207 nM. In addition, the GI50 in assay [7] was 976 nM; in [8], 40.8 nM; in [9], 1.2 µM; in assay [10] it was 541 nM. The TGI in assay [1] was 0.852 µM; in [2] it was 3.82 µM; in assay [3], 4.17 µM; in assay [4], over 27.8 µM; in [5], 6.99 µM; in assay [6], 1.4 µM. Also, the TGI in assay [7] was over 100 µM; in assay [8], 0.634 µM; in assay [9] it was 3.07 µM; in assay [10] it was over 100 µM.

For `C=CCC1(CN(C)C)CC/C(=C\c2cc(OC)c(OC)c(OC)c2)C1=O` (centres undefined), the TGI amounted to 74.6 µM in assay [1]; 92.8 µM in [2]; 59.6 µM in assay [3]; 20.6 µM in [4]; 50.4 µM in assay [5]; 79 µM in assay [6]. Further, the TGI in assay [7] was 38.4 µM; in assay [8], over 100 µM; in assay [9], 35.3 µM; in assay [10], 40.6 µM.

Regarding `Oc1ccc(O)c(-n2cccn2)c1`, the TGI in [1] is over 100 µM; in assay [2] it was over 100 µM; in assay [3], over 100 µM; in assay [4], 44.8 µM; in assay [5], over 100 µM; in assay [6], over 100 µM. In addition, the TGI was over 100 µM in [7], 93.2 µM in assay [8], over 100 µM in assay [9] and over 100 µM in assay [10].

As to `CCCC(=O)Oc1ccc(/C=N/NC(N)=S)nc1`, the TGI in assay [1], in [2], in assay [3], in [4], in [5] and in [6] was over 100 µM throughout. In addition, the TGI in assay [7], in [8], in assay [9] and in assay [10] was over 100 µM each time.
